Measurements from PubChem BioAssay AID1963854 (Molecular Pharmacology Branch, DTP, NCI, 2024).
Where “and” joins values, the source holds several entries; their conditions need not be identical. Equal values may be shown once.

Test system: 186277-243-T-J2-PDC complex spheroid viability
Assay: Anticancer human tumor 186277-243-T-J2-PDC patient-derived colon adenocarcinoma cell line growth inhibition [POLQ]
Conditions: for viability, T/C: stronger effect = lower value
Protocol: Multicellular complex tumor spheroid response to Polymerase (POL) inhibitors (novobiocin, ART-558, RP6685) in combination with a variety of drugs and investigational agents in selected tumor cell lines
The POL inhibitors (novobiocin, ART-558, and RP6685) were evaluated both individually and in combination with standard of care and investigational anticancer small molecules within a complex spheroid model of solid tumors. . Complex spheroids include a stromal component modeled by human endothelial cells (HUVEC) and fibroblasts modeled by human mesenchymal stem cells (MSCs). The concentration ranges selected for each drug and investigational agent were based upon clinically achievable concentrations if the clinical Cmax of the agent was known.
Compounds. The drugs and investigational agents: novobiocin (NSC847541), ART-558 (NSC835418), RP-6685 (NSC848927), peposertib (NSC802822), ceralasertib (NSC780249), elimusertib (NSC800525), camonsertib (NSC841442), AZD-1390 (NSC803789), olaparib (NSC753686), talazoparib (NSC767125), rucaparib (NSC756644), sotorasib (NSC818433), MRTX-1133 (NSC836407), SN-38 (NSC673596), topotecan (NSC609699), epotoside (NSC141540), doxorubicin (NSC123127), gemcitabine (NSC613327), 5-fluorouracil (NSC19893), paclitaxel (NSC125973), vemurafenib (NSC761431), MSA-2 (NSC828583), SN-011 (NSC837082), adavosertib (NSC754352), prexasertib (NSC758257), carboplatin (NSC241240) and oxaliplatin (NSC266046), were obtained from the National Cancer Institute (NCI) Developmental Therapeutics Program Chemical Repository (21). The FDA-approved anticancer drug set is available from the Developmental Therapeutics Program at https://dtp.cancer.gov/organization/dscb/obtaining/. […] The stock solutions were prepared in dimethyl sulfoxide (DMSO, Sigma-Aldrich, St. Louis, MO, cat. D2650), except for the platinum compounds which were prepared in saline (Quality Biological, Gaithersburg, MD, cat. 114-055-101), at 800-fold the tested concentration and stored at -70 degrees C prior to their use. All drugs and investigational agents were tested over a range starting from a high concentration at or near the clinical Cmax and decreasing in half-log increments. If the clinical Cmax for an agent had not been determined, the highest concentration tested was 10 microM, except for SN-38, which was tested at a high concentration of 1 microM.
Cell Culture. All cells were maintained in an incubator at 37 degrees C and 5% CO2 with 95% humidity. The PDC lines were cultured according to standard operating procedures established by the NCI PDMR (https://pdmr.cancer.gov). Table 3 of the manuscript, lists the cell lines along with the number of the three cell types plated to form the mct-spheroids and media for tumor cell growth. After thawing, all PDC lines, except 997537-175-T-J1-PDC and 415267-285-R-J2-PDC, were cultured in Matrigel-coated flasks prepared with a working solution of 1X Ham's F-12 nutrient mix, without supplementation (Thermo Fisher Scientific, cat. 11765054), 100 U/mL penicillin-streptomycin (Thermo Fisher Scientific, cat. 15140122), and 2.5% Matrigel (Corning Inc., Corning, NY, cat. 354248) for the first three passages. The two PDC lines 997537-175-T-J1-PDC and 415267-285-R-J2-PDC were cultured on uncoated flasks. The 857933-349-R-J2-PDC line was cultured in 6C/Colon 1B media containing advanced DMEM/F-12 (Thermo Fisher Scientific, cat. 12634028), 10 mM HEPES (Thermo Fisher Scientific, cat. 15630080), 1X GlutaMAX supplement (Thermo Fisher Scientific, cat. 35050061), 0.1 mg/mL primocin (InvivoGen, San Diego, CA, cat. ant-pm-2), 10% defined fetal bovine serum, heat inactivated (HyClone Laboratories Inc., Logan, UT, cat. SH30070.03HI), 50% L-WRN conditioned media (ATCC, cat. CRL-3276), 1.25 mM N-Acetyl-L-cysteine (Sigma-Aldrich, cat. A9165), 10 mM nicotinamide (Sigma-Aldrich, cat. N0636), 1X B-27 supplement (Thermo Fisher Scientific, cat. 17504044), 1X N-2 supplement (Thermo Fisher Scientific, cat. […]
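Further: spheroids exposed to compounds for seven days.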
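Wherever viability, T/C is given: 100% = DMSO vehicle control viability.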

`COc1ccc([C@@H](O)c2cc(-c3ncnc4cc(N5CCOCC5)ccc34)c(F)cc2Cl)nn1` was tested, and the viability, T/C (compound 0.0316 µM) was 113% and 93.8% and 106%, the viability, T/C (compound 0.1 µM) was 98% and 93.7% and 97.8% and the viability, T/C (compound 0.316 µM) was 86.5% and 101% and 97.7%. For the same compound, the viability, T/C (compound 1 µM) was 98.4% and 104% (2×), the viability, T/C (compound 3.16 µM) was 80.8% and 96.9% and 74.1% and the viability, T/C (compound 10 µM) was 31.1% and 61% and 30.1%. The IC50 (curve of compound) was 6450 nM and > 10000 nM and 5930 nM.
For `COc1cc2cc(C(=O)CCC(=O)O)sc2cc1OC`, the viability, T/C (compound 0.0316 µM) was 92.9% and 94% and 94.8%, the viability, T/C (compound 0.1 µM) was 92.5% and 101% and 99.4% and the viability, T/C (compound 0.316 µM) was 100% and 88% and 107%. For the same compound, the viability, T/C (compound 1 µM) was 111% and 86% and 87.3%, the viability, T/C (compound 3.16 µM) was 94.3% and 96.3% and 101% and the viability, T/C (compound 10 µM) was 94.8% and 95.2% and 101%. The IC50 (curve of compound) was > 10000 nM.
`Cc1cccc(N(C)C(=O)C2C(O)CCN2c2nc(C)cc(C(F)(F)F)c2C#N)c1` (stereo unspecified) was tested, and the viability, T/C (compound 0.0316 µM) was 107% [middle of 13 runs], the viability, T/C (compound 0.1 µM) was 102% [middle of 13 runs] and the viability, T/C (compound 0.316 µM) was 99.1% [middle of 13 runs]. For the same compound, the viability, T/C (compound 1 µM) was 97.2% [middle of 13 runs], the viability, T/C (compound 3.16 µM) was 95.9% [middle of 13 runs] and the viability, T/C (compound 10 µM) was 92.7% [middle of 13 runs]. The IC50 (compound alone, run of 10/31/2023) was > 10000 nM and the IC50 (compound alone, run of 11/06/2023) was > 10000 nM.
`CCc1c2c(nc3ccc(O)cc13)-c1cc3c(c(=O)n1C2)COC(=O)[C@]3(O)CC` was tested, and the viability, T/C (compound 0.00316 µM) was 71.2% and 120% and 58.7%, the viability, T/C (compound 0.01 µM) was 48.6% and 82.9% and 43.5% and the viability, T/C (compound 0.0316 µM) was 25.4% and 47% and 22.2%. The viability, T/C (compound 0.1 µM) was 12.7% and 25.5% and 10.8%, the viability, T/C (compound 0.316 µM) was 9.65% and 21.7% and 8.26% and the viability, T/C (compound 1 µM) was 7.75% and 21.3% and 6.71%. The IC50 (curve of compound) was 9.35 nM and 27.7 nM and 6.11 nM.
`CC1COCCN1c1cc(C2(O)CC3CCC(C2)O3)c2cnn(-c3ccn[nH]3)c2n1` (stereo unspecified) + Nc1ccc(C#CCN(C(=O)Cc2ncc(C(F)(F)F)cc2C(F)(F)F)c2ccc(F)cc2)nn1 was tested, and the IC50 (curve of first compound, second compound 0.0316 µM) was 67.1 nM, the IC50 (curve of first compound, second compound 0.1 µM) was 69 nM and the IC50 (curve of first compound, second compound 0.316 µM) was 71.3 nM. It also gave an IC50 (curve of first compound, second compound 1 µM) of 66.4 nM, an IC50 (curve of first compound, second compound 3.16 µM) of 64.4 nM and an IC50 (curve of first compound, second compound 10 µM) of 55.2 nM. The viability, T/C (second compound 0.0316 µM, first compound 0.0316 µM) was 107%, the viability, T/C (second compound 0.0316 µM, first compound 0.1 µM) was 19.5% and the viability, T/C (second compound 0.0316 µM, first compound 0.316 µM) was 9.32%. It also gave a viability, T/C (second compound 0.0316 µM, first compound 1 µM) of 6.59%, a viability, T/C (second compound 0.0316 µM, first compound 3.16 µM) of 9.6% and a viability, T/C (second compound 0.0316 µM, first compound 10 µM) of 7.56%. For the same compound, the viability, T/C (second compound 0.1 µM, first compound 0.0316 µM) was 113%, the viability, T/C (second compound 0.1 µM, first compound 0.1 µM) was 20.2% and the viability, T/C (second compound 0.1 µM, first compound 0.316 µM) was 8.44%. The viability, T/C (second compound 0.1 µM, first compound 1 µM) was 6.39%, the viability, T/C (second compound 0.1 µM, first compound 3.16 µM) was 8.6% and the viability, T/C (second compound 0.1 µM, first compound 10 µM) was 8.62%. It also gave a viability, T/C (second compound 0.316 µM, first compound 0.0316 µM) of 116%, a viability, T/C (second compound 0.316 µM, first compound 0.1 µM) of 22.6% and a viability, T/C (second compound 0.316 µM, first compound 0.316 µM) of 8.74%. The viability, T/C (second compound 0.316 µM, first compound 1 µM) was 6.2%, the viability, T/C (second compound 0.316 µM, first compound 3.16 µM) was 8.36% and the viability, T/C (second compound 0.316 µM, first compound 10 µM) was 8.22%. For the same compound, the viability, T/C (second compound 1 µM, first compound 0.0316 µM) was 109%, the viability, T/C (second compound 1 µM, first compound 0.1 µM) was 17.5% and the viability, T/C (second compound 1 µM, first compound 0.316 µM) was 8.98%. The viability, T/C (second compound 1 µM, first compound 1 µM) was 6.1%, the viability, T/C (second compound 1 µM, first compound 3.16 µM) was 8.12% and the viability, T/C (second compound 1 µM, first compound 10 µM) was 7.01%. For the same compound, the viability, T/C (second compound 3.16 µM, first compound 0.0316 µM) was 102%, the viability, T/C (second compound 3.16 µM, first compound 0.1 µM) was 17.9% and the viability, T/C (second compound 3.16 µM, first compound 0.316 µM) was 8.53%. For the same compound, the viability, T/C (second compound 3.16 µM, first compound 1 µM) was 7.23%, the viability, T/C (second compound 3.16 µM, first compound 3.16 µM) was 8.02% and the viability, T/C (second compound 3.16 µM, first compound 10 µM) was 9.12%. It also gave a viability, T/C (second compound 10 µM, first compound 0.0316 µM) of 85.1%, a viability, T/C (second compound 10 µM, first compound 0.1 µM) of 12.7% and a viability, T/C (second compound 10 µM, first compound 0.316 µM) of 8.17%. The viability, T/C (second compound 10 µM, first compound 1 µM) was 5.8%, the viability, T/C (second compound 10 µM, first compound 3.16 µM) was 8.58% and the viability, T/C (second compound 10 µM, first compound 10 µM) was 6.5%.
